The text below walks through data of publication PMC4055595, “Pharmacokinetic Compatibility of Ginsenosides and Schisandra Lignans in Shengmai-san: From the Perspective of P-Glycoprotein” (PLoS ONE, 2014).

Where two headings read alike, the source gives them in different places.

A short description of data set [1]: Rat plasma pharmacokinetics after 10-day vehicle/SLE and digoxin or GE. Format: in vivo, Sprague-Dawley rats. To be noted: for AUC(0-inf): read-out: AUCINF_obs; for MRT inf: read-out: MRTINF_obs. On the procedure:
This study was carried out in strict accordance with the recommendations in the Guide for the Care and Use of Laboratory Animals of the National Institutes of Health. The protocol was approved by the Committee on the Ethics of Animal Experiments of the China Pharmaceutical University. All surgery was performed under sodium pentobarbital anesthesia, and all efforts were made to minimize suffering. […] The rats were fed with standard laboratory food and water and fasted overnight but with free access to water before the test. To evaluate the effect of long-term treatment with SLE on the pharmacokinetics of ginsenosides, 24 rats were also divided into four groups (group I∼ group IV) with 6 animals each. […] On the 11th day, digoxin was administered intragastrically to rats (group I and group II) at a single dose of 0.5 mg/kg, GE was administered intragastrically to rats (group III and group IV) at a single dose of 120 mg/kg. […] Plasma was obtained by centrifugation at 5000 g for 10 min and stored at −20°C before analysis. The plasma / cell samples were extracted using a liquid–liquid extraction technique. To each tube containing 100 µL plasma, 10 µL internal standard (digoxin, 1.0 µg/mL) and 1.0 mL of n-butanol were added. The mixture was then vortex-extracted for 2 min, and centrifuged for 10 min at 10,000 g. […] The plasma concentration-time curves of ginsenosides in rats were obtained by plotting the mean plasma concentrations versus time. Pharmacokinetic parameters were calculated using the WinNonlin 6.3 program (Pharsight Inc., Mountain View, CA). The elimination half-life (t 1/2) value was calculated as 0.693/β, where β is the elimination rate constant calculated from the terminal linear portion of the log plasma concentration-time curve. The total areas under the plasma concentration- time curve from time 0 to the last quantifiable time point (AUC0-t) and from time 0 to infinity (AUC0-∞) were calculated using the log trapezoidal rule. [drawing 3] The maximum plasma concentrations (C max) for ginsenosides were obtained by visual inspection of the plasma concentration-time curve, whereas the initial drug concentration (the extrapolated concentration at zero time) of the drug after intravenous injection was calculated by back-extrapolation of the plasma concentration-time curve to the y-axis.

A further data set has as its system Caco-2 cell monolayer. Description: Transport of digoxin and ginsenosides across Caco-2 cell monolayer (efflux ratio). Format: in vitro ADME, human. The method, then:
Caco-2 cells were purchased from American Type Culture Collection (Manassas, VA), and were routinely cultured in Dulbecco's modified Eagle's medium supplemented with 10% fetal bovine serum, 1% nonessential amino acids, 1 mM sodium pyruvate, and 100 U/mL penicillin and streptomycin (Invitrogen, Carlsbad, CA). The cells were grown in an atmosphere of 5% CO2 at 37°C, and cell medium was changed every other day. Cells were seeded at a density of 4×10^4 cells per well in 24-well microporous polycarbonate insert filter plates (0.4-µm pore size) (Corning Costar plates; Corning Life Sciences, Lowell, MA) and grown for 15 days in Caco-2 growth medium. The medium was replaced every 3 to 4 days. Before running the assay, the culture medium was replaced by HBSS buffer supplemented with 10 mM Hepes and 20 mM glucose.
Caco-2 cells with a density of 1.2×10^5 cells/insert were seeded on a permeable polycarbonate insert (Millicell cell culture inserts, 0.4 µm pore size, 12 mm diameter; Millipore Corporation) in 24-well tissue culture plates and were used for the experiment 18 to 21 days after seeding. [^14C]Mannitol permeability and transepithelial electrical resistance measurements (Millicell-ERS epithelial volt-ohm meter; Millipore Corporation) were used to evaluate the integrity of Caco-2 cell monolayer. The monolayer used in transport studies had transepithelial electrical resistance values exceeding 600 Ω·cm^2, and the leakage of mannitol was less than 0.3% of the dose/h. Before transport initiation studies, the cell monolayer was first washed with warm HBSS (pH 7.4) twice. HBSS containing SLE (2.0 and 10.0 µg/mL) or 1% ethanol (control) was then loaded into both apical and basolateral chambers. After incubation at 37°C for 1.5 h, 100 µg/mL of GE was added to either the apical or basolateral side to evaluate the transport in absorptive and secretory directions, and the cell monolayer was incubated for another 2 h. 10 µM verapamil was used as a positive control inhibitor. At the designated time point, samples were taken from the receiving chamber for analysis. Ginsenosides were determined by LC-MS. All experiments were conducted in triplicate.
For the transport assay, the apparent permeability (P app, cm/s) in each direction (A→B and B→A) was calculated as follows, where A is the surface area of the membrane inserts (0.0804 cm^2), C 0 is the initial concentration of the compound applied in the donor compartment (2 µM), and △Q is the amount (micromoles) of compound transported over time △t (5 h = 18,000 s): [drawing 1]
The efflux ratio (ER) was a dimensionless number calculated as the ratio of the apparent permeability in the B→A direction divided by the apparent permeability in the A→B direction. [drawing 2]
A general note: Caco-2 monolayers are a common model of the intestinal barrier.

Where [2] appears, read: female, Sprague-Dawley, rat, plasma, po, rats, SLE 500 mg/kg ig once a day for 10 days, day 11 digoxin 0.5 mg/kg or GE 120 mg/kg ig.
Setting [3] is: female, Sprague-Dawley, rat, plasma, po, rats, SLE 500 mg/kg ig once a day for 10 days, day 11 digoxin 0.5 mg/kg or GE 120 mg/kg ig, read-out: Tmax.
Where [4] appears, read: female, Sprague-Dawley, rat, plasma, po, rats, SLE 500 mg/kg ig once a day for 10 days, day 11 digoxin 0.5 mg/kg or GE 120 mg/kg ig, read-out: t1/2 (converted).
The mark [5] stands for this setting: female, Sprague-Dawley, rat, plasma, po, rats, control: vehicle once a day for 10 days, day 11 digoxin 0.5 mg/kg or GE 120 mg/kg ig.
Where [6] appears, read: female, Sprague-Dawley, rat, plasma, po, rats, control: vehicle once a day for 10 days, day 11 digoxin 0.5 mg/kg or GE 120 mg/kg ig, read-out: t1/2 (converted).
Setting [7] is: rats, SLE 500 mg/kg ig once a day for 10 days, day 11 digoxin 0.5 mg/kg or GE 120 mg/kg ig.
[8] abbreviates: rats, control: vehicle once a day for 10 days, day 11 digoxin 0.5 mg/kg or GE 120 mg/kg ig.
The mark [9] stands for this setting: rats, SLE 500 mg/kg x 10 days vs vehicle, GE ig on day 11.

In general, AUC refers to concentration integrated over time. As a reminder, the Cmax is the maximum level reached in the sampled fluid or tissue. In general, Tmax refers to the time at which the peak concentration occurs. For `C[C@H]1O[C@@H](O[C@H]2[C@@H](O)C[C@H](O[C@H]3[C@@H](O)C[C@H](O[C@H]4CC[C@@]5(C)[C@H](CC[C@@H]6[C@@H]5C[C@@H](O)[C@]5(C)[C@@H](C7=CC(=O)OC7)CC[C@]65O)C4)O[C@@H]3C)O[C@@H]2C)C[C@H](O)[C@@H]1O` [Digoxin, digoxin, reference compound], the AUC stood at 123 ± 52.8 ng·h/mL in data set [1] (setting [2]) and 68.3 ± 26 ng·h/mL in data set [1] (setting [5]). Besides, the Cmax came to 22.9 ± 13.7 ng/mL in data set [1] (setting [2]) and 11.8 ± 4.22 ng/mL in data set [1] (setting [5]). The AUC(0-inf) in data set [1] (setting [2]) was found to be 127 ± 52.1 ng·h/mL; in data set [1] (setting [5]), 76.1 ± 30 ng·h/mL. Besides, the MRT inf in data set [1] (setting [2]) was determined as 4.78 ± 0.91 h; in data set [1] (setting [5]), 5.65 ± 2.85 h. Moreover, the Tmax worked out at 3.28 ± 1.73 h in data set [1] (setting [3]) and 2.33 ± 1.03 h in data set [1] (female, Sprague-Dawley, rat, plasma, po, rats, control: vehicle once a day for 10 days, day 11 digoxin 0.5 mg/kg or GE 120 mg/kg ig, read-out: Tmax). The values for the half-life in data set [1] (setting [4]) and in data set [1] (setting [6]) were 2.19 ± 0.87 h and 2.99 ± 2.32 h, respectively. Moreover, the values for the Cl_F_obs in data set [1] (setting [7]) and in data set [1] (setting [8]) were 4.49 ± 1.75 L/h and 7.48 ± 3.09 L/h, respectively. Also, the “Increase of AUC0-τ by 10 continuous days administration of SLE” value in data set [1] (rats, SLE 500 mg/kg x 10 days vs vehicle, digoxin 0.5 mg/kg ig on day 11, P<0.05) is on record as “about 2 fold”.
Regarding `CC(C)=CCC[C@](C)(O[C@@H]1O[C@H](CO[C@@H]2OC[C@H](O)[C@H](O)[C@H]2O)[C@@H](O)[C@H](O)[C@H]1O)[C@H]1CC[C@]2(C)[C@@H]1[C@H](O)C[C@@H]1[C@@]3(C)CC[C@H](O[C@@H]4O[C@H](CO)[C@@H](O)[C@H](O)[C@H]4O[C@@H]4O[C@H](CO)[C@@H](O)[C@H](O)[C@H]4O)C(C)(C)[C@@H]3CC[C@]12C` [Rb2, ginsenoside Rb2], in data set [1] (setting [2]), the exposure (AUC) is 21300 ± 6520 ng·h/mL, the Cmax worked out at 586 ± 95.2 ng/mL, the AUC(0-inf) is 16600 ± 3510 ng·h/mL and the MRT inf amounted to 26.5 ± 6.58 h. In data set [1] (setting [3]), the Tmax is 10 ± 2.83 h. Also, the half-life in data set [1] (setting [4]) is 24.3 ± 8.42 h. In data set [1] (setting [5]), the AUC was 15900 ± 3310 ng·h/mL, the Cmax turned out to be 512 ± 77.8 ng/mL, the AUC(0-inf) was determined as 22600 ± 6120 ng·h/mL and the MRT inf was found to be 29.5 ± 2.61 h. Besides, the half-life in data set [1] (setting [6]) is 20.1 ± 3.66 h. In addition, in data set [1] (setting [7]), the AUCINF_obs was 22557 ± 6121 ng·h/mL and the Cl_F_obs is 0.0047 ± 0.0011 L/h. In addition, the “Increase of AUC (AUC0-∞) by 10 continuous days administration of SLE” value (shortened to “Increase of AUC (AUC0-∞)”) in data set [1] (setting [9]) amounted to 1.33 fold. In data set [1] (setting [8]), this compound came in with an AUCINF_obs of 16600 ± 3511 ng·h/mL and a Cl_F_obs of 0.0062 ± 0.0013 L/h.
As to `CC(C)=CCC[C@](C)(O[C@@H]1O[C@H](CO[C@@H]2O[C@@H](CO)[C@H](O)[C@H]2O)[C@@H](O)[C@H](O)[C@H]1O)[C@H]1CC[C@]2(C)[C@@H]1[C@H](O)C[C@@H]1[C@@]3(C)CC[C@H](O[C@@H]4O[C@H](CO)[C@@H](O)[C@H](O)[C@H]4O[C@@H]4O[C@H](CO)[C@@H](O)[C@H](O)[C@H]4O)C(C)(C)[C@@H]3CC[C@]12C` [Rc, ginsenoside Rc], the “Increase of AUC (AUC0-∞)” value in data set [1] (female, Sprague-Dawley, rat, in vivo) turned out to be 1.16 fold. In data set [1] (female, Sprague-Dawley, rat, in vivo, po), this compound had a t1/2 of 20.81 ± 9.64 h. The Tmax in data set [1] (female, Sprague-Dawley, rat, in vivo, po, Tmax) came to 11.2 ± 1.79 h. In data set [1] (female, Sprague-Dawley, rat, in vivo, po, t1/2), the half-life is 26.8 ± 3.08 h.
With `CC(C)=CCC[C@](C)(O[C@@H]1O[C@H](CO)[C@@H](O)[C@H](O)[C@H]1O)[C@H]1CC[C@]2(C)[C@@H]1[C@H](O)C[C@@H]1[C@@]3(C)CC[C@H](O[C@@H]4O[C@H](CO)[C@@H](O)[C@H](O)[C@H]4O[C@@H]4O[C@H](CO)[C@@H](O)[C@H](O)[C@H]4O)C(C)(C)[C@@H]3CC[C@]12C` [Rd, ginsenoside Rd], the “Effect of verapamil on efflux ratio” value in the data set on Caco-2 cell monolayer (Caco-2 cells, 10 µM verapamil) is given as “decreased significantly”. Further, the “Effect of SLE on BL-AP transport / efflux ratio” value with Caco-2 cell monolayer (Caco-2 monolayer, SLE 2.0 and 10.0 µg/mL) is reported as “concentration dependently decrease”. In data set [1] (setting [2]), the AUC was 7640 ± 2690 ng·h/mL, the concentration peaked (Cmax) at 265 ± 49.4 ng/mL, the AUC(0-inf) worked out at 11700 ± 8560 ng·h/mL and the MRT inf came to 26.3 ± 90.6 h. Moreover, the half-life in data set [1] (setting [4]) was 18 ± 75.9 h. In data set [1] (setting [5]), the AUC turned out to be 6570 ± 1820 ng·h/mL, the Cmax came to 262 ± 104 ng/mL, the AUC(0-inf) is 7460 ± 2340 ng·h/mL and the MRT inf was found to be 22.4 ± 9.98 h. Moreover, in data set [1] (setting [6]), the half-life was 20.8 ± 9.64 h. In data set [1] (setting [7]), the Cl_F_obs was 0.0125 ± 0.0084 L/h and the time to peak (Tmax) amounted to 8.00 ± 2.45 h. Moreover, the “Increase of AUC (AUC0-∞)” value in data set [1] (setting [9]) is 1.60 fold. Also, the Tmax in data set [1] (setting [8]) turned out to be 8.00 ± 2.45 h.
